In brackets after ≈: the same amount, converted by molar mass. Values belong to the molecule of their own block, whether it stands above or below them.
Legend:
Type in all cases: functional
[1] = system: Staphylococcus; assay: Antimicrobial activity against Staphylococci
[2] = system: Klebsiella pneumoniae; assay: Antimicrobial activity against Klebsiella pneumoniae after 18 to 24 hrs by geometric microdilution method
[3] = system: Acinetobacter lwoffii; assay: Antimicrobial activity against Acinetobacter lwoffii after 18 to 24 hrs by geometric microdilution method
[4] = system: Pseudomonas aeruginosa; assay: Antimicrobial activity against Pseudomonas aeruginosa after 18 to 24 hrs by geometric microdilution method
[5] = system: Escherichia coli; assay: Antimicrobial activity against Escherichia coli after 18 to 24 hrs by geometric microdilution method
[6] = system: Porphyromonas circumdentaria; assay: Antimicrobial activity against protease-positive Porphyromonas circumdentaria by agar dilution method
[7] = system: Streptococcus mutans; assay: Antimicrobial activity against Streptococcus mutans by agar dilution method
[8] = system: Porphyromonas gingivalis; assay: Antimicrobial activity against protease-positive Porphyromonas gingivalis by agar dilution method
[9] = system: Porphyromonas cangingivalis; assay: Antimicrobial activity against protease-positive Porphyromonas cangingivalis by agar dilution method

MIC [1]: 0.095 µg/mL (≈ 0.143 µM)
SMILES: CCN(CC)CCCCOc1cc2oc3cc(OCCCCN(CC)CC)c(OC)c(CC=C(C)C)c3c(=O)c2c(O)c1CC=C(C)C

MIC [2]: 2 µg/mL (≈ 2.69 µM)
MIC [3]: 2 µg/mL (≈ 2.69 µM)
MIC [4]: 2 µg/mL (≈ 2.69 µM)
MIC [5]: 2 µg/mL (≈ 2.69 µM)
SMILES: NC[C@H]1O[C@H](O[C@H]2[C@H](O)[C@@H](OCc3ccc4ccccc4c3)[C@H](N)C[C@@H]2N)[C@H](N)[C@@H](OCc2ccc3ccccc3c2)[C@@H]1OCc1ccc2ccccc2c1

MIC [6]: 1 µg/mL (≈ 1.48 µM)
MIC [7]: 1 µg/mL (≈ 1.48 µM)
MIC [8]: 2 µg/mL (≈ 2.95 µM)
MIC [9]: 2 µg/mL (≈ 2.95 µM)
SMILES: CCCCCCCCNCCC[C@@H](C)[C@H]1CC[C@H]2[C@@H]3[C@H](OCCCN)C[C@@H]4C[C@H](OCCCN)CC[C@]4(C)[C@H]3C[C@H](OCCCN)[C@]12C

From ChEMBL document CHEMBL3596187, “Design and synthesis of membrane-targeting antibiotics: from peptides- to aminosugar-based antimicrobial cationic amphiphiles” (2014)
